Literature values as cited in patent US20180235913A1, “AN ORAL PHARMACEUTICAL FORMULATION COMPRISING SUSTAINED-RELEASE GRANULES CONTAINING TAMSULOSIN HYDROCHLORIDE” (HANMI PHARM. CO., LTD., priority 2015, published 2018).
Counter-ions that a name gives are not always drawn.

Conditions: white crystalline powder

## CCOc1ccccc1OCCN[C@H](C)Cc1ccc(OC)c(S(N)(=O)=O)c1 [Tamsulosin hydrochloride]
  Water solubility: slight water solubility
